Test results as given in patent publication EP4603105A1, “PHARMACEUTICAL COMPOSITION CONTAINING CYCLIC COMPOUND HAVING SELECTIVE KRAS INHIBITORY EFFECT AGAINST HRAS AND NRAS” (CHUGAI SEIYAKU KABUSHIKI KAISHA, priority 2022, dated 2024).
pIC50: −log10 of the molar value. Where a SMILES comes first, the peptide text is derived from it. Bridges are numbered along the chain shown (N, C = ends). [ ]: non-standard residue; d: D form. The star is where a group is joined. hPhe(3-Cl-4-CF3) = N[C@@H](CCc1ccc(C(F)(F)F)c(Cl)c1)C(=O)O; NPrPhe(4-CF3) = CCCN[C@@H](Cc1ccc(C(F)(F)F)cc1)C(=O)O; NMeAbu(4,4,4-F3) = CN[C@@H](CC(F)(F)F)C(=O)O; NMeGly(cPent) = CN[C@H](C(=O)O)C1CCCC1; Pro(4,4-F2) = O=C(O)[C@@H]1CC(F)(F)CN1; NMeD = CN[C@@H](CC(=O)O)C(=O)O; NMeL = CN[C@@H](CC(C)C)C(=O)O; Morpholide = C1CN(*)CCO1; NMeA = CN[C@@H](C)C(=O)O; Ac5c = NC1(C(=O)O)CCCC1; Aze = O=C(O)[C@@H]1CCN1; Sar = CNCC(=O)O

Columns and labels:
[1] = test system: human lung cancer strain NCI-H441; type: cell-based
Method in brief: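 Step one: dispense the test compound in serial DMSO dilutions. Step three: add the reagent and measure […].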

[2] = biological target: HRAS wild-type protein (Homo sapiens, UniProt P01112); assay: Binding to HRAS by surface plasmon resonance (SPR), KD and KD ratio to KRAS
HRAS wild-type protein, sequence (P01112 whole entry): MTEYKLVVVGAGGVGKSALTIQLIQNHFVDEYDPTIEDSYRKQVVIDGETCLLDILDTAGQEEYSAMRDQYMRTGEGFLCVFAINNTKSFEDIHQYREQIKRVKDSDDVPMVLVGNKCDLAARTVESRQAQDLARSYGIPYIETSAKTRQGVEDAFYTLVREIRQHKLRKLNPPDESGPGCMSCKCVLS
Method in brief: (§1)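 Biotinylated GDP-bound RAS was captured at about 100–300 RU. Running buffer: HBS pH 7.4, 10 mM MgCl2, 10 µM GDP, 1 mM DTT, 0.01% Tween 20, 4% DMSO.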

[3] = biological target: GDP-bound NRAS wild-type protein (Homo sapiens, UniProt P01111); assay: Binding to NRAS by surface plasmon resonance (SPR), KD and KD ratio to KRAS
GDP-bound NRAS wild-type protein, sequence (P01111 whole entry): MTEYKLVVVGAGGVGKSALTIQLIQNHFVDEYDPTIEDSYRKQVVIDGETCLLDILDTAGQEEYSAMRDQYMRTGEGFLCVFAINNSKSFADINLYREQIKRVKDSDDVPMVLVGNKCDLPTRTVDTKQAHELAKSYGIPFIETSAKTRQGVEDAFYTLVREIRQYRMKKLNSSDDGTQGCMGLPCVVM
Method in brief: as §1

[4] = ratio of KD for HRAS wild-type protein to KD for KRAS
[5] = ratio of KD for GDP-bound NRAS wild-type protein to KD for KRAS
[6] = ratio of the KD value with respect to HRAS wild-type protein to the KD value with respect to KRAS
[7] = ratio of the KD value with respect to GDP-bound NRAS wild-type protein to the KD value with respect to KRAS

Row | Compound | pIC50 [1] | HRAS /KRAS [2, 4] | NRAS /KRAS [3, 5] | HRAS /KRAS [2, 6] | NRAS /KRAS [3, 7] | HRAS /KRAS ([2]; ratio of KD value for HRAS wild-type protein to KD value for KRAS (SPR)) | NRAS /KRAS ([3]; ratio of KD value for GDP-bound NRAS wild-type protein to KD value for KRAS (SPR))
1 | CCO[C@@H]1C[C@H]2C(=O)NC3(CCC3)C(=O)N(C)[C@@H](C(CC)CC)C(=O)N(C)[C@H](C(=O)N3CCCC3)CC(=O)N(C)[C@H]3CCCC/C=C/c4ccc(cc4)C[C@@H](C(=O)N(C)CC(=O)N[C@@H](CCc4ccc(Cl)c(Cl)c4)C(=O)N2C1)N1CC/C=C\C[C@@H](C1=O)N(C)C(=O)CN(C)C(=O)[C@H]([C@@H](C)CC)NC3=O [PP3047] | 8.21 | A (a compound having 10 or more and less than 20 is denoted as A) | AA (a compound having 20 or more is denoted as AA) | – | – | – | –
2 | CCO[C@@H]1C[C@H]2C(=O)NC3(CC(C)(C)C3)C(=O)N(C)[C@@H](C3CCCC3)C(=O)N(C)[C@H](C(=O)N(C)CC)CC(=O)N(C)[C@@H](CC)C(=O)N[C@@H]([C@@H](C)CC)C(=O)N(C)CC(=O)N(C)[C@H]3C/C=C\CCN(C3=O)[C@@H](Cc3ccc(C(F)(F)F)cc3)C(=O)N(C)CC(=O)N[C@@H](CCc3ccc(C(F)(F)F)c(Cl)c3)C(=O)N2C1 [PP2823] | 8.12 | A (a compound having 10 or more and less than 20 is denoted as A) | A (a compound having 10 or more and less than 20 is denoted as A) | – | – | – | –
3 | CCCN1C(=O)CN(C)C(=O)CN(C)C(=O)[C@H]([C@@H](C)CC)NC(=O)[C@H](CC(F)(F)F)N(C)C(=O)C[C@@H](C(=O)N2CCOCC2)N(C)C(=O)[C@H](C2CCCC2)N(C)C(=O)C2(CCCC2)NC(=O)[C@@H]2CC(F)(F)CN2C(=O)[C@H](CCc2ccc(C(F)(F)F)c(Cl)c2)NC(=O)CN(C)C(=O)[C@@H]1Cc1ccc(C(F)(F)F)cc1 [PP0199] ([NMeAbu(4,4,4-F3)]I[Sar][Sar][NPrPhe(4-CF3)][Sar][hPhe(3-Cl-4-CF3)][Pro(4,4-F2)][Ac5c][NMeGly(cPent)][NMeD]-Morpholide; lactam N-11) | 8.46 | C (A compound having a KD ratio of 0.1 or more and less than 3 is denoted as C) | B (a compound having 3 or more and less than 10 is denoted as B) | – | – | – | –
4 | CCO[C@@H]1C[C@H]2C(=O)NC3(CCC3)C(=O)N(C)[C@@H](C3CCCC3)C(=O)N[C@H](C(=O)N(C)C)CC(=O)N(C)[C@@H](CC)C(=O)N[C@@H]([C@@H](C)CC)C(=O)N(C)CC(=O)N(C)[C@H]3C/C=C\CCN(C3=O)[C@@H](Cc3ccc(C(F)(F)F)cc3)C(=O)N(C)CC(=O)N[C@@H](CCc3cc(F)c(C(F)(F)F)c(F)c3)C(=O)N2C1 [PP1094] | 6.11 | B (a compound having 3 or more and less than 10 is denoted as B) | A (a compound having 10 or more and less than 20 is denoted as A) | – | – | – | –
5 | CC[C@H](C)[C@@H]1NC(=O)[C@H](CC(C)C)N(C)C(=O)C[C@@H](C(=O)N2CCOCC2)N(C)C(=O)[C@H](C2CCCC2)N(C)C(=O)C2(CCCC2)NC(=O)[C@@H]2CCCN2C(=O)[C@H](CCc2cc(F)c(C(F)(F)F)c(F)c2)NC(=O)CN(C)C(=O)[C@H](Cc2ccc(C(F)(F)F)cc2)N2CCCCC[C@@H](C2=O)N(C)C(=O)CN(CC)C1=O [PP0483] | 6.28 | – | – | B (a compound having 3 or more and less than 10 is denoted as B) | B (a compound having 3 or more and less than 10 is denoted as B) | – | –
6 | CC[C@H](C)[C@@H]1NC(=O)[C@H](CC(C)C)N(C)C(=O)C[C@@H](C(=O)N2CCOCC2)N(C)C(=O)[C@H](C2CCCC2)N(C)C(=O)C2(CCCC2)NC(=O)[C@@H]2CCCN2C(=O)[C@H](CCc2ccc(C(F)(F)F)c(Cl)c2)NC(=O)CN(C)C(=O)[C@H](Cc2ccc(C(F)(F)F)cc2)N2CCCC[C@@H](C2=O)N(C)C(=O)CN(C)C1=O [PP0318] | 8.64 | B (a compound having 3 or more and less than 10 is denoted as B) | B (a compound having 3 or more and less than 10 is denoted as B) | – | – | – | –
7 | CCCN1C(=O)[C@@H]2CCN2C(=O)[C@H](C)N(C)C(=O)[C@H]([C@@H](C)CC)NC(=O)[C@H](CC(F)(F)F)N(C)C(=O)C[C@@H](C(=O)N2CCOCC2)N(C)C(=O)[C@H](C2CCCC2)N(C)C(=O)C2(CCCC2)NC(=O)[C@@H]2CC(F)(F)CN2C(=O)[C@H](CCc2ccc(C(F)(F)F)c(Cl)c2)NC(=O)CN(C)C(=O)[C@@H]1Cc1ccc(C(F)(F)F)cc1 [PP0203] ([NMeAbu(4,4,4-F3)]I[NMeA][Aze][NPrPhe(4-CF3)][Sar][hPhe(3-Cl-4-CF3)][Pro(4,4-F2)][Ac5c][NMeGly(cPent)][NMeD]-Morpholide; lactam N-11) | 8.55 | C (A compound having a KD ratio of 0.1 or more and less than 3 is denoted as C) | C (A compound having a KD ratio of 0.1 or more and less than 3 is denoted as C) | – | – | – | –
8 | CCCN1C(=O)[C@@H]2CCN2C(=O)[C@H](C)N(C)C(=O)[C@H]([C@@H](C)CC)NC(=O)[C@H](CC(C)C)N(C)C(=O)C[C@@H](C(=O)N(C)C)NC(=O)[C@H](C2CCCC2)N(C)C(=O)C2(CCCC2)NC(=O)[C@@H]2CCCN2C(=O)[C@H](CCc2ccc(C(F)(F)F)c(Cl)c2)NC(=O)CN(C)C(=O)[C@@H]1Cc1ccc(C(F)(F)F)cc1 [PP0379] ([NMeL]I[NMeA][Aze][NPrPhe(4-CF3)][Sar][hPhe(3-Cl-4-CF3)]P[Ac5c][NMeGly(cPent)]D-NMe2; lactam N-11) | 8.36 | B (a compound having 3 or more and less than 10 is denoted as B) | C (A compound having a KD ratio of 0.1 or more and less than 3 is denoted as C) | – | – | – | –
9 | CC[C@H](C)[C@@H]1NC(=O)[C@H](CC2CCCC2)N(C)C(=O)C[C@@H](C(=O)N(C)C)N(C)C(=O)[C@H](C2CCCC2)N(C)C(=O)C2(CCC2)NC(=O)[C@@H]2C[C@@H](C(F)(F)F)CN2C(=O)[C@H](CCc2cc(F)c(C(F)(F)F)c(F)c2)NC(=O)CN(C)C(=O)[C@H](Cc2ccc(C(F)(F)F)cc2)N2CC/C=C\C[C@@H](C2=O)N(C)C(=O)CN(C)C1=O [PP1505] | 8.40 | – | – | – | – | A (a compound having 10 or more and less than 20 is denoted as A) | A (a compound having 10 or more and less than 20 is denoted as A)
10 | CC[C@H](C)[C@@H]1NC(=O)[C@H](CC(C)C)N(C)C(=O)C[C@@H](C(=O)N2CCOCC2)N(C)C(=O)[C@H](C2CCCC2)N(C)C(=O)C2(CCCC2)NC(=O)[C@@H]2CCCN2C(=O)[C@H](CCc2ccc(C(F)(F)F)c(Cl)c2)NC(=O)CN(C)C(=O)[C@H](Cc2ccc(C(F)(F)F)cc2)N2CC=CC[C@@H](C2=O)N(C)C(=O)CN(C)C1=O [PP0462] | 7.82 | – | – | C (A compound having a KD ratio of 0.1 or more and less than 3 is denoted as C) | C (A compound having a KD ratio of 0.1 or more and less than 3 is denoted as C) | – | –
11 | CCO[C@@H]1C[C@H]2C(=O)NC3(CC(C)(C)C3)C(=O)N(C)[C@@H](C(CC)CC)C(=O)N(C)[C@H](C(=O)N(C)C)CC(=O)N(C)[C@@H](CC3CCC3)C(=O)N[C@@H]([C@@H](C)CC)C(=O)N(C)CC(=O)N(C)[C@H]3C/C=C\CCN(C3=O)[C@@H](Cc3ccc(C(F)(F)F)cc3)C(=O)N(C)CC(=O)N[C@@H](CCc3ccc(C(F)(F)F)c(Cl)c3)C(=O)N2C1 [PP2138] | 7.80 | – | – | A (a compound having 10 or more and less than 20 is denoted as A) | A (a compound having 10 or more and less than 20 is denoted as A) | – | –
12 | CCO[C@@H]1C[C@H]2C(=O)NC3(CC(C)(C)C3)C(=O)N(C)[C@@H](C3CCCC3)C(=O)N(C)[C@H](C(=O)N3CCOCC3)CC(=O)N(C)[C@@H](CC(C)C)C(=O)N[C@@H]([C@@H](C)CC)C(=O)N(C)CC(=O)N(C)[C@H]3CCCCCN(C3=O)[C@@H](Cc3ccc(C(F)(F)F)cc3)C(=O)N(C)CC(=O)N[C@@H](CCc3cc(F)c(C(F)(F)F)c(F)c3)C(=O)N2C1 [PP0726] | 7.49 | – | – | B (a compound having 3 or more and less than 10 is denoted as B) | B (a compound having 3 or more and less than 10 is denoted as B) | – | –
13 | CCO[C@@H]1C[C@H]2C(=O)NC3(CCC3)C(=O)N(C)[C@@H](C3CCCC3)C(=O)N(C)[C@H](C(=O)N(C)C)CC(=O)N(C)[C@@H](CC)C(=O)N[C@@H]([C@@H](C)CC)C(=O)N[C@@H](C)C(=O)N(C)[C@H]3C/C=C\CCN(C3=O)[C@@H](Cc3ccc(C(F)(F)F)cc3)C(=O)N(C)CC(=O)N[C@@H](CCc3cc(F)c(C(F)(F)F)c(F)c3)C(=O)N2C1 [PP1065] | 7.01 | B (a compound having 3 or more and less than 10 is denoted as B) | A (a compound having 10 or more and less than 20 is denoted as A) | – | – | – | –
14 | CCO[C@@H]1C[C@H]2C(=O)NC3(CC(C)(C)C3)C(=O)N(C)[C@@H](C(CC)CC)C(=O)N(C)[C@H](C(=O)N(C)C)CC(=O)N(C)[C@@H](CC3CC3)C(=O)N[C@@H]([C@@H](C)CC)C(=O)N(C)CC(=O)N(C)[C@H]3C/C=C\CCN(C3=O)[C@@H](Cc3ccc(C)cc3)C(=O)N(C)CC(=O)N[C@@H](CCc3ccc(C(F)(F)F)c(OC)c3)C(=O)N2C1 [PP2166] | 7.63 | – | – | A (a compound having 10 or more and less than 20 is denoted as A) | A (a compound having 10 or more and less than 20 is denoted as A) | – | –
15 | CCO[C@@H]1C[C@H]2C(=O)NC3(CC(C)(C)C3)C(=O)N(C)[C@@H](C(CC)CC)C(=O)N(C)[C@H](C(=O)N(C)C)CC(=O)N(C)[C@@H](CC(C)C)C(=O)N[C@@H]([C@@H](C)CC)C(=O)N(C)CC(=O)N(C)[C@H]3C/C=C\CCN(C3=O)[C@@H](Cc3ccc(C(F)(F)F)cc3)C(=O)N(C)CC(=O)N[C@@H](CCc3ccc(C(F)(F)F)c(Cl)c3)C(=O)N2C1 [PP2132] | 7.74 | – | – | A (a compound having 10 or more and less than 20 is denoted as A) | AA (a compound having 20 or more is denoted as AA) | – | –
